Experimental data reported in patent US11986471B2, “Compounds and methods of use” (Tango Therapeutics, Inc., priority 2018, dated 2024).

Experiments:
PRMT5 [1] = biological target: T1, PRMT5 (Homo sapiens, UniProt O14744); assay: PRMT5 IC50 assay in the presence of SAM as cofactor; format: biochemical
T1 construct: purchased Viva (custom protein)
In short: (§1)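 IC50 against PRMT5 determined with SAM as cofactor, with no cofactor, and with MTA as cofactor. Ki derived as IC50/1.5 for the SAM assay and IC50/13.5 for the MTA assay; SAM Ki to MTA Ki ratio also reported.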

HAP1 MTAP-intact = assay: SDMA in-cell western assay, HAP1 MTAP-intact cell line; format: cell-based; conditions: Homo sapiens
In short: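 IC50 values come from SDMA in-cell western staining of HAP1 cells. The MTAP-intact line carries endogenous MTAP, while its MTAP-deleted counterpart lacks MTAP entirely. A selectivity ratio of at least 3 fold marks a compound as MTAP-selective.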

HAP1 MTAP-deleted = assay: SDMA in-cell western assay, HAP1 MTAP-deleted cell line; format: cell-based; conditions: for IC50: Homo sapiens, HAP1 MTAP-deleted cell line; for MTAP Intact/Deleted Ratio: IC50 ratio HAP1 MTAP-intact / HAP1 MTAP-deleted
In short: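 Readout is cellular SDMA signal by in-cell western, with IC50 values derived from it. The cells are MTAP-null HAP1, matched to an isogenic MTAP-intact HAP1 line.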

PRMT5 [2] = biological target: T1, PRMT5; assay: PRMT5 IC50 assay in the presence of MTA as cofactor; format: biochemical; conditions: for IC50: PRMT5, MTA as cofactor; for SAM/MTA Ratio: ratio between Ki in the presence of SAM and Ki in the presence of MTA
In short: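 IC50 values were measured against human PRMT5 with SAM, with MTA, or with no cofactor. Ki was derived from IC50 as Ki=IC50/1.5 with SAM and Ki=IC50/13.5 with MTA, and the Ki(SAM)/Ki(MTA) ratio was then taken.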

PRMT5 [3] = biological target: T1, PRMT5; assay: PRMT5 IC50 assay with no cofactor; format: biochemical; conditions: read-out: No Co-factor IC50
In short: as §1

T1 sequence (O14744 whole entry): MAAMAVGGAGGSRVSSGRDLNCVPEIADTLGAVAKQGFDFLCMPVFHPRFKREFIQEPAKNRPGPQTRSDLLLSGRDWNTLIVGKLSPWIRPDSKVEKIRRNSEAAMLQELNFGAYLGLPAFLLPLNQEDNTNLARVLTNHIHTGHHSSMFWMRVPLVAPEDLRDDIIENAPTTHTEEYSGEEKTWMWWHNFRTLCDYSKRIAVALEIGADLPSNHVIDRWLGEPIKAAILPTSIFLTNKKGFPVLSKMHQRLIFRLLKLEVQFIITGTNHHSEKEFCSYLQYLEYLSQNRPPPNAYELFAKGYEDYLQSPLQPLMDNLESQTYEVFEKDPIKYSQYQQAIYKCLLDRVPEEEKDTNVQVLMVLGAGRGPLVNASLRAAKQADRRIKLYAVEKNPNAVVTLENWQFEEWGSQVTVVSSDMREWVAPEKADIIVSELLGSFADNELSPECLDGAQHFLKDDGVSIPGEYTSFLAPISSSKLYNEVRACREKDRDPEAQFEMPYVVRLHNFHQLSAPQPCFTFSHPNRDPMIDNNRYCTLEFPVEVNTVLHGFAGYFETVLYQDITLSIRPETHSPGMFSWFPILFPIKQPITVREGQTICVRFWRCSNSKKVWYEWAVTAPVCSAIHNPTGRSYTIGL
T1 sequence (Q9BQA1 whole entry partner): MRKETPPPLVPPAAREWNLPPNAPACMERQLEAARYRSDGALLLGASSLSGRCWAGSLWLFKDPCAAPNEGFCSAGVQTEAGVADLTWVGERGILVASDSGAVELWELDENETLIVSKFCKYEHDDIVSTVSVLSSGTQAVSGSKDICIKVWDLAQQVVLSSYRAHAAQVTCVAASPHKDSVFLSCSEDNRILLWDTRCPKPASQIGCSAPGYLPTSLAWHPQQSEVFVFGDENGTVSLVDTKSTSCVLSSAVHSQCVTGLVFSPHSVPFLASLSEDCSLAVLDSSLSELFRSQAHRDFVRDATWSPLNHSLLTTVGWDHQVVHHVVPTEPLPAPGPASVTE

SMILES	IC50 (PRMT5 [1])	IC50 (HAP1 MTAP-intact)	IC50 (HAP1 MTAP-deleted)	MTAP Intact/Deleted Ratio (HAP1 MTAP-deleted)	IC50 (PRMT5 [2])	SAM/MTA Ratio (PRMT5 [2])	IC50 (PRMT5 [3])
COCCN(C)c1nc(NC2COC2)cc(C(=O)NC[C@H](O)CN2CCc3c(ccc(OCc4cnco4)c3Cl)C2)n1 [Compound 314]	50 to 500 nM	≥ 10 µM	1 to 10 µM	C* (an IC50 ratio of less than 3 fold between the IC50 in the HAP1 MTAP-intact cell line and the HAP1 MTAP-deleted cell line)	50 to 500 nM	A (a Ki ratio greater than or equal to 10 fold between the Ki in the presence of SAM and the Ki in the presence of MTA)	0.5 to 5 µM
CN(C)CCOc1cc(C(=O)NC[C@H](O)CN2CCc3cc(OCc4cnco4)ccc3C2)cc(NC2CCC2)n1 [Compound 315, (S)-2-(cyclobutylamino)-6-(2-(dimethylamino)ethoxy)-N-(2-hydroxy-3-(6-(oxazol-5-ylmethoxy)-3,4-dihydroisoquinolin-2(1H)-yl)propyl)isonicotinamide]	50 to 500 nM	1 to 10 µM	< 1 µM	C* (an IC50 ratio of less than 3 fold between the IC50 in the HAP1 MTAP-intact cell line and the HAP1 MTAP-deleted cell line)	< 50 nM	A (a Ki ratio greater than or equal to 10 fold between the Ki in the presence of SAM and the Ki in the presence of MTA)	0.5 to 5 µM
O=C(NC[C@H](O)CN1CCc2c(ccc(OCc3cnco3)c2Cl)C1)c1ccnc(NC2CCC(F)(F)C2)c1 (stereo partly drawn) [Compound 316, N—((S)-3-(5-chloro-6-(oxazol-5-ylmethoxy)-3,4-dihydroisoquinolin-2(1H)-yl)-2-hydroxypropyl)-2-((3,3-difluorocyclopentyl)amino)isonicotinamide]	50 to 500 nM	≥ 10 µM	≥ 10 µM	C* (an IC50 ratio of less than 3 fold between the IC50 in the HAP1 MTAP-intact cell line and the HAP1 MTAP-deleted cell line)	50 to 500 nM	A (a Ki ratio greater than or equal to 10 fold between the Ki in the presence of SAM and the Ki in the presence of MTA)	≥ 5 µM
O=C(NC[C@H](O)CN1CCc2c(ccc(OCc3cnco3)c2Cl)C1)c1ccnc(NC2CC(C(F)F)C2)c1 (stereo partly drawn) [Compound 317, (S)—N-(3-(5-chloro-6-(oxazol-5-ylmethoxy)-3,4-dihydroisoquinolin-2(1H)-yl)-2-hydroxypropyl)-2-((3-(difluoromethyl)cyclobutyl)amino)isonicotinamide]	500 to 5000 nM	≥ 10 µM	≥ 10 µM	C* (an IC50 ratio of less than 3 fold between the IC50 in the HAP1 MTAP-intact cell line and the HAP1 MTAP-deleted cell line)	50 to 500 nM	A (a Ki ratio greater than or equal to 10 fold between the Ki in the presence of SAM and the Ki in the presence of MTA)	≥ 5 µM
CCC(=O)N1CCN(c2nc(NC3COC3)cc(C(=O)NC[C@H](O)CN3CCc4c(ccc(OCc5cnco5)c4Cl)C3)n2)CC1 [Compound 318, (S)—N-(3-(5-chloro-6-(oxazol-5-ylmethoxy)-3N-dihydroisoquinolin-2(1H)-yl)-2-hydroxypropyl)-6-(oxetan-3-ylamino)-2-(4-propionylpiperazin-1-yl)pyrimidine-4-carboxamide]	50 to 500 nM	≥ 10 µM	1 to 10 µM	C* (an IC50 ratio of less than 3 fold between the IC50 in the HAP1 MTAP-intact cell line and the HAP1 MTAP-deleted cell line)	50 to 500 nM	A (a Ki ratio greater than or equal to 10 fold between the Ki in the presence of SAM and the Ki in the presence of MTA)	0.5 to 5 µM
CC(C)(C)N1CCN(c2cc(C(=O)NC[C@H](O)CN3CCc4c(ccc(OCc5cnco5)c4Cl)C3)cc(NC3CCC3)n2)CC1 [Compound 319, (S)-2-(4-(tert-butyl)piperazin-1-yl)-N-(3-(5-chloro-6-(oxazol-5-ylmethoxy)-3N-dihydroisoquinolin-2(1H)-yl)-2-hydroxypropyl)-6-(cyclobutylamino)isonicotinamide]	50 to 500 nM	≥ 10 µM	≥ 10 µM	C* (an IC50 ratio of less than 3 fold between the IC50 in the HAP1 MTAP-intact cell line and the HAP1 MTAP-deleted cell line)	50 to 500 nM	A (a Ki ratio greater than or equal to 10 fold between the Ki in the presence of SAM and the Ki in the presence of MTA)	0.5 to 5 µM
O=C(NC[C@H](O)CN1CCc2cc(OCc3cnco3)ccc2C1)c1cc(NC2CCC2)nc(N2CCCCC2)c1 [Compound 320, (S)-2-(cyclobutylamino)-N-(2-hydroxy-3-(6-(oxazol-5-ylmethoxy)-3,4-dihydroisoquinolin-2(1H)-yl)propyl)-6-(piperidin-1-yl)isonicotinamide]	500 to 5000 nM	1 to 10 µM	1 to 10 µM	C* (an IC50 ratio of less than 3 fold between the IC50 in the HAP1 MTAP-intact cell line and the HAP1 MTAP-deleted cell line)	500 to 5000 nM		0.5 to 5 µM
CC(=O)N1CCN(c2nc(NC3COC3)cc(C(=O)NC[C@H](O)CN3CCc4cc(OCc5cnco5)ccc4C3)n2)CC1 [Compound 321]	50 to 500 nM	≥ 10 µM	1 to 10 µM	C* (an IC50 ratio of less than 3 fold between the IC50 in the HAP1 MTAP-intact cell line and the HAP1 MTAP-deleted cell line)	50 to 500 nM	A (a Ki ratio greater than or equal to 10 fold between the Ki in the presence of SAM and the Ki in the presence of MTA)	0.5 to 5 µM
O=C(NC[C@H](O)CN1CCc2c(ccc(OCc3cnco3)c2Cl)C1)c1ccnc(NC2CCC(F)C2)c1 (stereo partly shown) [Compound 322]	50 to 500 nM	≥ 10 µM	≥ 10 µM	C* (an IC50 ratio of less than 3 fold between the IC50 in the HAP1 MTAP-intact cell line and the HAP1 MTAP-deleted cell line)	50 to 500 nM	A (a Ki ratio greater than or equal to 10 fold between the Ki in the presence of SAM and the Ki in the presence of MTA)	≥ 5 µM
CC(C)C(=O)N1CCN(c2nc(NC3COC3)cc(C(=O)NC[C@H](O)CN3CCc4c(ccc(OCc5cnco5)c4Cl)C3)n2)CC1 [Compound 323, (S)—N-(3-(5-chloro-6-(oxazol-5-ylmethoxy)-3N-dihydroisoquinolin-2(1H)-yl)-2-hydroxypropyl)-2-(4-isobutyrylpiperazin-1-yl)-6-(oxetan-3-ylamino)pyrimidine-4-carboxamide]	50 to 500 nM	≥ 10 µM	1 to 10 µM	B* (an IC50 ratio greater than or equal to 3 fold but lower than 10 fold between the IC50 in the HAP1 MTAP-intact cell line and the HAP1 MTAP-deleted cell line)	50 to 500 nM	A (a Ki ratio greater than or equal to 10 fold between the Ki in the presence of SAM and the Ki in the presence of MTA)	0.5 to 5 µM
CCN1CCN(c2nc(NC3COC3)cc(C(=O)NC[C@H](O)CN3CCc4c(ccc(OCc5cnco5)c4Cl)C3)n2)CC1 [Compound 324]	50 to 500 nM	≥ 10 µM	1 to 10 µM	C* (an IC50 ratio of less than 3 fold between the IC50 in the HAP1 MTAP-intact cell line and the HAP1 MTAP-deleted cell line)	50 to 500 nM	A (a Ki ratio greater than or equal to 10 fold between the Ki in the presence of SAM and the Ki in the presence of MTA)	0.5 to 5 µM
O=C(NC[C@H](O)CN1CCc2cc(OCc3cnco3)ccc2C1)c1cc(NC2COC2)nc(N2CCCCC2)n1 [Compound 325, (S)—N-(2-hydroxy-3-(6-(oxazol-5-ylmethoxy)-3,4-dihydroisoquinolin-2(1H)-yl)propyl)-6-(oxetan-3-ylamino)-2-(piperidin-1-yl)pyrimidine-4-carboxamide]	50 to 500 nM	1 to 10 µM	< 1 µM	C* (an IC50 ratio of less than 3 fold between the IC50 in the HAP1 MTAP-intact cell line and the HAP1 MTAP-deleted cell line)	50 to 500 nM	A (a Ki ratio greater than or equal to 10 fold between the Ki in the presence of SAM and the Ki in the presence of MTA)	0.5 to 5 µM
O=C(NC[C@H](O)CN1CCc2c(ccc(OCc3cnco3)c2Cl)C1)c1cc(NC2COC2)nc(N2CCCCC2)n1 [Compound 327, (S)—N-(3-(5-chloro-6-(oxazol-5-ylmethoxy)-3N-dihydroisoquinolin-2(1H)-yl)-2-hydroxypropyl)-6-(oxetan-3-ylamino)-2-(piperidin-1-yl)pyrimidine-4-carboxamide]	50 to 500 nM	≥ 10 µM	1 to 10 µM	B* (an IC50 ratio greater than or equal to 3 fold but lower than 10 fold between the IC50 in the HAP1 MTAP-intact cell line and the HAP1 MTAP-deleted cell line)	50 to 500 nM	A (a Ki ratio greater than or equal to 10 fold between the Ki in the presence of SAM and the Ki in the presence of MTA)	0.5 to 5 µM
O=C(NC[C@H](O)CN1CCc2cc(OCc3cnco3)ccc2C1)c1ccc(OC2CCN(Cc3ccncc3)CC2)cc1 [Compound 328]	50 to 500 nM	1 to 10 µM	< 1 µM	C* (an IC50 ratio of less than 3 fold between the IC50 in the HAP1 MTAP-intact cell line and the HAP1 MTAP-deleted cell line)	50 to 500 nM	A (a Ki ratio greater than or equal to 10 fold between the Ki in the presence of SAM and the Ki in the presence of MTA)	0.5 to 5 µM
